According to ChEMBL document CHEMBL4825755 (J Med Chem, 2021):

Tests used:
[1] = Intrinsic clearance in Wistar Han rat liver microsomes at 0.5 uM measured up to 45 mins in presence of NADPH by LC-MS/MS analysis; type: ADME, Microsome; settings: read-out: CLH
[2] = target: PI3-kinase p110-alpha/p85-alpha (Homo sapiens, UniProt P42336); experiment: Inhibition of recombinant human N-terminal His6-tagged full length P110alpha/full length untagged human p85alpha expressed in baculovirus infected Sf21 insect cells using PIP2 as substrate preincubated for 15 mins followed by substrate addition and measured after 60 mins by HTRF assay
PI3K p110 beta/p85 alpha = PI3K p110 beta/p85 alpha (Homo sapiens, UniProt P42338); experiment: Inhibition of recombinant human N-terminal His6-tagged full length P110beta/full length untagged human p85alpha expressed in baculovirus infected Sf21 insect cells using PIP2 as substrate preincubated for 15 mins followed by substrate addition and measured after 60 mins by HTRF assay
in vitro = settings: human, pooled liver microsomes
Description: Intrinsic clearance in pooled human liver microsomes at 0.5 uM measured up to 45 mins in presence of NADPH by LC-MS/MS analysis

[3] = Lipophilicity, log D of compound by chromatographic method; type: physicochemical
[4] = target: Phosphatidylinositol 4,5-bisphosphate 3-kinase catalytic subunit gamma isoform (Homo sapiens, UniProt P48736); experiment: Inhibition of recombinant human N-terminal His6-tagged full length P120gamma expressed in baculovirus infected Sf21 insect cells using PIP2 as substrate preincubated for 15 mins followed by substrate addition and measured after 60 mins by HTRF assay
[5] = target: T1, Phosphatidylinositol 4,5-bisphosphate 3-kinase catalytic subunit delta isoform (Homo sapiens, UniProt O00329); experiment: Inhibition of PI3Kdelta in human whole blood assessed as reduction in cytostim-stimulated IFNgamma production preincubated for 1 hr followed by cytostim stimulation and measured after 20 hrs by electrochemiluminescence assay
T1 sequence (O00329 whole entry): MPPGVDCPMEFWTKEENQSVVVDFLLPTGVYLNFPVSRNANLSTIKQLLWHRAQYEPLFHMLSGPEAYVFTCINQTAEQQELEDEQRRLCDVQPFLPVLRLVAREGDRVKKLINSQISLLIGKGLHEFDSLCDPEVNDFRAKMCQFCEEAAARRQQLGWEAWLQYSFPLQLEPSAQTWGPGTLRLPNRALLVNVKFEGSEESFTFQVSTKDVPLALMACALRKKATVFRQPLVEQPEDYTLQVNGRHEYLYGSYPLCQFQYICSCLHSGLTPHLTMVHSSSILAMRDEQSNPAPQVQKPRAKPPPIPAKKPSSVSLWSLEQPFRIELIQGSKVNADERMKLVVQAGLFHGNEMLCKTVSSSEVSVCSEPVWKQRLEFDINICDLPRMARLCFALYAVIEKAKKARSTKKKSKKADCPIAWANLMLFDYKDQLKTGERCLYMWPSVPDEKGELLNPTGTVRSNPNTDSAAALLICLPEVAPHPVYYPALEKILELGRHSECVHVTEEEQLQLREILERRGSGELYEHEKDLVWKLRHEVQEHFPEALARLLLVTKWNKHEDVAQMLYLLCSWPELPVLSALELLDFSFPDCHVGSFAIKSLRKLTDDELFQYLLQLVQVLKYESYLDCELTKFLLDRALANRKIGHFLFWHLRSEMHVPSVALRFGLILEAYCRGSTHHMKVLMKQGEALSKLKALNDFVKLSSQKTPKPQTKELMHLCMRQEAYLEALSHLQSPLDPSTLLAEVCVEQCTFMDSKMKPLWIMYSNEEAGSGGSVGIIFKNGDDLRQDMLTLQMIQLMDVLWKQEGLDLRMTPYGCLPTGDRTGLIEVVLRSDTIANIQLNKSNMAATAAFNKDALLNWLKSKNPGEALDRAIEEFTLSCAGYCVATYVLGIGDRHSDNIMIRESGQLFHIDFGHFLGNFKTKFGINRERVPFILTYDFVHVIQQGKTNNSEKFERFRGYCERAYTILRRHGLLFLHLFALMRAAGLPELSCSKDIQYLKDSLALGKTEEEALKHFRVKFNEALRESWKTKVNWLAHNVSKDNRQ

[6] = target: PI3-kinase p110-delta/p85-alpha (Homo sapiens, UniProt O00329); experiment: Inhibition of recombinant human N-terminal His6-tagged full length P110delta/full length untagged human p85alpha expressed in baculovirus infected Sf21 insect cells using PIP2 as substrate preincubated for 15 mins followed by substrate addition and measured after 60 mins by HTRF assay
Chain of PI3-kinase p110-delta/p85-alpha (P27986 whole entry, one chain of several): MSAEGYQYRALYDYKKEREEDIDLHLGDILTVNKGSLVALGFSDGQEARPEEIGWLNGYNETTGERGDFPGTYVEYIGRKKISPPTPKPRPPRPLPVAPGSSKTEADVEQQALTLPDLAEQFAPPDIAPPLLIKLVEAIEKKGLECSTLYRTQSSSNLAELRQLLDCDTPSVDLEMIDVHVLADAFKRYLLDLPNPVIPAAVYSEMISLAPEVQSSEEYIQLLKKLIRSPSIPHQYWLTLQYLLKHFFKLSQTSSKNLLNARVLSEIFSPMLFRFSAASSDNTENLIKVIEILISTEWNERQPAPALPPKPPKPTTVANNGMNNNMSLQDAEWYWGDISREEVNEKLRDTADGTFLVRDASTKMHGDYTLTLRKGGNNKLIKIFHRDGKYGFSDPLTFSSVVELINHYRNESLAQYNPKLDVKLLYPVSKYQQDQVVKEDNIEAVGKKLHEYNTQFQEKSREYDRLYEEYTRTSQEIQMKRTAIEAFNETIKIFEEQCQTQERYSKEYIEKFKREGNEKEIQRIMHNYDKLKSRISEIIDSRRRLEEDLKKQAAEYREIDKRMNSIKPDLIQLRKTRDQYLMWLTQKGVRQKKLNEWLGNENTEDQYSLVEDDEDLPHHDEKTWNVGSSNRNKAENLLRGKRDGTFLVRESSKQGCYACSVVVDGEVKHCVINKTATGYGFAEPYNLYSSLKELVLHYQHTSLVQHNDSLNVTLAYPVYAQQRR

Chain of Phosphatidylinositol 4,5-bisphosphate 3-kinase catalytic subunit gamma isoform (P48736 whole entry, canonical isoform): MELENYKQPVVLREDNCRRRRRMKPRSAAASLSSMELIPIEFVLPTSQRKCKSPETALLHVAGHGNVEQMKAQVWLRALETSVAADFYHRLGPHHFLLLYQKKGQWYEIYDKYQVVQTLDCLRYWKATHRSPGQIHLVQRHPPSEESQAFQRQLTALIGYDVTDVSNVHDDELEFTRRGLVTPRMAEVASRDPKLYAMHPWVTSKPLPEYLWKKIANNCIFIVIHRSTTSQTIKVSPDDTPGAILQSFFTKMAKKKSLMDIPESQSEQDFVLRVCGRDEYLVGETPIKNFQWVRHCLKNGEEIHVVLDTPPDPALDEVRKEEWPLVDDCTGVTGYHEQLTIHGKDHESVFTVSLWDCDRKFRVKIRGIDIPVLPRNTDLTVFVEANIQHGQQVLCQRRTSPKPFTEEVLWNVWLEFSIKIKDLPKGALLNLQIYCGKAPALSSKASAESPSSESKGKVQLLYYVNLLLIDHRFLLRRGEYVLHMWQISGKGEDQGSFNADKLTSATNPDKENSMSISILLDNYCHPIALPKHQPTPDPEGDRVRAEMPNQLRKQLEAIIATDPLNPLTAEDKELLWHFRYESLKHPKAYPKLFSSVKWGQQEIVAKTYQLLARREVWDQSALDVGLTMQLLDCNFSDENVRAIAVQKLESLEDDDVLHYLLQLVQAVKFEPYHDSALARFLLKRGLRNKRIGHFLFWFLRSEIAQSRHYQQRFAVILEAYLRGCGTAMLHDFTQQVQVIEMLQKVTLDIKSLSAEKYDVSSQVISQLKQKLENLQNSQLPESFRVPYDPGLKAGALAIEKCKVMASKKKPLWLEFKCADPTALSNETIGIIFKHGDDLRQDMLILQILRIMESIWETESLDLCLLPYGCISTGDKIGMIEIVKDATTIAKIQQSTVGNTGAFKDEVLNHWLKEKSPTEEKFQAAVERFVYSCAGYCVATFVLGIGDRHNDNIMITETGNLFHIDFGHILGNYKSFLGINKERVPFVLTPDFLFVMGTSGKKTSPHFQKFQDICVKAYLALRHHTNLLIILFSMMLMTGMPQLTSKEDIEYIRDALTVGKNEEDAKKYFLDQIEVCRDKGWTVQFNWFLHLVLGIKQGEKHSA
Chain of PI3-kinase p110-alpha/p85-alpha (P27986 whole entry): as the sequence (P27986 whole entry, one chain of several) above
Chain of PI3-kinase p110-alpha/p85-alpha (P42336 whole entry): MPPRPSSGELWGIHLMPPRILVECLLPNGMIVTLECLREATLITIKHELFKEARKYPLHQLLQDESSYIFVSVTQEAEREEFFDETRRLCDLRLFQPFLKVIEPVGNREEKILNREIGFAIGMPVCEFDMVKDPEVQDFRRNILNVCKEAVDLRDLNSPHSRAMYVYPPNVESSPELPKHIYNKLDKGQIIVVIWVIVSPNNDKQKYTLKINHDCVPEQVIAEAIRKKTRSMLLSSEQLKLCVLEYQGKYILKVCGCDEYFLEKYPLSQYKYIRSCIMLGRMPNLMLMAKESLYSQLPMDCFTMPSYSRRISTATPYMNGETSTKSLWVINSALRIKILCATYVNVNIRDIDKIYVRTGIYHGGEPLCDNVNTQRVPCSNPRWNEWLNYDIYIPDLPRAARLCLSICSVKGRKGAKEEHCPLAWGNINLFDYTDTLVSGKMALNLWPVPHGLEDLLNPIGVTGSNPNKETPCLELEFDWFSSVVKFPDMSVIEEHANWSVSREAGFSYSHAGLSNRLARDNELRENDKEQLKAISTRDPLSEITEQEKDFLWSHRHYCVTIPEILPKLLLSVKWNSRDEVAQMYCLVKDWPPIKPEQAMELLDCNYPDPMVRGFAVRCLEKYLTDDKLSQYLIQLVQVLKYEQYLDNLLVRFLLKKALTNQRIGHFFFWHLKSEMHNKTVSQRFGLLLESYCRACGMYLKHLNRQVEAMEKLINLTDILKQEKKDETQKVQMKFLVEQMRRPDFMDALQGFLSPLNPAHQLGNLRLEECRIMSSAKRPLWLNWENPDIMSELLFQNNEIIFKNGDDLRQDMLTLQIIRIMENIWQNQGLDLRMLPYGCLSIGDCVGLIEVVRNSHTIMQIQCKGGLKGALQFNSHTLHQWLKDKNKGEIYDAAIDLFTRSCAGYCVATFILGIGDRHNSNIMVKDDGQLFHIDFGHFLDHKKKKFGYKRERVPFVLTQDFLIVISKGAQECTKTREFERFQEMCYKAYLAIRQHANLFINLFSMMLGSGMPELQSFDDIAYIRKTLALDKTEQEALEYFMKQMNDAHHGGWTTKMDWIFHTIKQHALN
Chain of PI3K p110 beta/p85 alpha (P27986 whole entry): as the sequence (P27986 whole entry, one chain of several) above
Chain of PI3K p110 beta/p85 alpha (P42338 whole entry): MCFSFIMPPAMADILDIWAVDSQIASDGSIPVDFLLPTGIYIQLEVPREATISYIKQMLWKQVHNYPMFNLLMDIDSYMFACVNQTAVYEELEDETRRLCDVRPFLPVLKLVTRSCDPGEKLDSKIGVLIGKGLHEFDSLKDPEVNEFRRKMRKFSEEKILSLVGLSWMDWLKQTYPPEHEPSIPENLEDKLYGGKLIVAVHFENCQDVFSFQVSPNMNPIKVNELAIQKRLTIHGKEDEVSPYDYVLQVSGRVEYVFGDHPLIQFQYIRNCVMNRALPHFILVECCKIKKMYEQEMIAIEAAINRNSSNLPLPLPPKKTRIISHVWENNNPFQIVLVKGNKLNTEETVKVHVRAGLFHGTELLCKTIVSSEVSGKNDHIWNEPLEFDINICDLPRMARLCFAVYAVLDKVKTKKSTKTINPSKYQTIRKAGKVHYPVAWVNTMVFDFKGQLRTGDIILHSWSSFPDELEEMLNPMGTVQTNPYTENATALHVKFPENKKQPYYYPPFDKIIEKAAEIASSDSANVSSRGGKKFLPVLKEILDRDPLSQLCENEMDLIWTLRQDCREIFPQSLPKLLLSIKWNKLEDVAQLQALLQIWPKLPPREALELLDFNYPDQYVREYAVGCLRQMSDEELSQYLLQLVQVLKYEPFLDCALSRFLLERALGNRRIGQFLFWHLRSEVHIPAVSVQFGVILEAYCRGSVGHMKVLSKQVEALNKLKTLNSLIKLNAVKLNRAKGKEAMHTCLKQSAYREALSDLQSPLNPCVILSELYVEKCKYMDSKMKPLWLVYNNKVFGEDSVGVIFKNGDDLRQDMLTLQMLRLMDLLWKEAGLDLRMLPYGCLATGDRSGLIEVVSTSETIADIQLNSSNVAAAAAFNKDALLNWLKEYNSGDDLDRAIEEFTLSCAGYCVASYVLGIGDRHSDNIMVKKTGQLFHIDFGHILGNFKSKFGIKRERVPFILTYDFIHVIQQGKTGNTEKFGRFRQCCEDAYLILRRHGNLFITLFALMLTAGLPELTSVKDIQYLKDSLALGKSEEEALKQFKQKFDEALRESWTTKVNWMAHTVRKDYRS

Structure (SMILES)	CLint scaled at 0.5 µM [1] [mL/min/kg]	IC50 [2] [nM]	IC50 (PI3K p110 beta/p85 alpha) [nM]	CLint scaled at 0.75 h, 0.5 µM (in vitro) [mL/min/kg]	chromatographic logD [3]	IC50 [4] [nM]	IC50 [5] [nM]	IC50 [6] [nM]	Ki [6] [nM]	pIC50 ([4]; sf21)
COc1ncc(C2=CCOCC2)cc1S(=O)(=O)Nc1cncc(-c2cccc(CN3CCCCC3)c2)c1	3.98	5010	1260	1.88	3.5	6310	79.4	5.01	–	–
COc1ncc(C2=CCOCC2)cc1S(=O)(=O)Nc1cncc(-c2ccc(N3CCN(C(C)C)CC3)cc2)c1	–	316	316	–	3.8	7940	50.1	3.16	–	–
COc1ncc(N2CCOCC2)cc1S(=O)(=O)Nc1cncc(-c2ccc(CN3CCN(C(C)C)CC3)cc2F)c1 [listing 1 of 2 here]	< 0.46	501	3980	0.65	2.6	2510	–	1.26	–	–
COc1ncc(C2=CCOCC2)cc1S(=O)(=O)Nc1cncc(-c2ccc(CN3C[C@@H](C)O[C@@H](C)C3)cc2)c1	18.9	1000	631	12.9	5.3	794	25.1	0.398	0.01	–
COc1ncc(C2=CCOCC2)cc1S(=O)(=O)Nc1cncc(C#CCN2C[C@@H](C)O[C@@H](C)C2)c1	5.59	6310	5010	3.64	3.6	5010	–	3.98	–	–
COc1ncc(N2CCOCC2)cc1S(=O)(=O)Nc1ccnc(-c2ccc(CN3CCN(C(C)C)CC3)c(F)c2F)c1 [listing 1 of 2 here]	< 0.46	1260	5010	0.47	2.2	–	3.16	1.58	0.0631	–
COc1ncc(N2CCOCC2)cc1S(=O)(=O)Nc1ccnc(-c2ccc(CN3CCN(C(C)(C)C)CC3)cc2)c1 [listing 1 of 2 here]	–	1580	6310	–	–	3980	–	–	–	–
COc1ncc(N2CCOCC2)cc1S(=O)(=O)Nc1ccnc(-c2ccc(CN3CCC(C(C)(C)O)CC3)cc2F)c1	< 0.46	2510	2510	< 0.4	2.1	3160	10	1.58	0.0501	–
COc1ncc(C2=CCOCC2)cc1S(=O)(=O)Nc1cncc(-c2ccc(CN3CCN(C(C)C)CC3)nc2)c1	< 0.46	1260	3980	0.43	1.8	5010	31.6	1.26	0.0251	–
COc1ncc(C2=CCOCC2)cc1S(=O)(=O)Nc1cncc(-c2ccc(CN(C)C)cc2)c1	0.66	5010	1000	< 0.4	2	10000	79.4	7.94	–	–
COc1ncc(N2CCOCC2)cc1S(=O)(=O)Nc1ccnc(-c2ccc(CN3CCN(C(C)(C)C)CC3)cc2F)c1	< 0.37	794	3980	< 0.31	1.9	2000	2.51	0.794	0.0251	–
COc1ncc(C2=CCOCC2)cc1S(=O)(=O)Nc1cncc(C2=CCN(C)CC2)c1	–	20000	5010	–	1.5	5010	–	316	–	–
COc1ncc(N2CCOCC2)cc1S(=O)(=O)Nc1ccnc(-c2ccc(CN3CCN(C(C)(C)C)CC3)cc2)c1 [listing 2 of 2 here]	< 0.46	–	–	< 0.4	1.3	–	7.94	0.794	0.0251	–
COc1ncc(N2CCOCC2)cc1S(=O)(=O)Nc1ccnc(-c2ccc(CN3CCN(C(C)C)CC3)c(F)c2)c1	< 0.46	1580	7940	< 0.4	1.8	3980	3.16	1.58	0.0501	–
COc1ncc(N2CCOCC2)cc1S(=O)(=O)Nc1cncc(-c2ccc(CN3CCCC3)cc2)c1 [listing 1 of 2 here]	< 0.46	5010	2000	< 0.4	1.9	–	79.4	20	–	–
COc1ncc(N2CCOCC2)cc1S(=O)(=O)Nc1ccnc(-c2ccc(CN3C[C@@H](C)O[C@@H](C)C3)cc2F)c1	0.59	1260	1580	0.87	3.9	251	7.94	1	0.0316	–
COc1ncc(C2=CCOCC2)cc1S(=O)(=O)Nc1cncc(C2CC2CN(C)C)c1 (configuration not stated)	–	6310	1260	–	1.2	7940	–	126	–	–
COc1ncc(N2CCOCC2)cc1S(=O)(=O)Nc1cncc(C#CCN2CCN(C(C)C)CC2)c1	< 0.46	20000	15800	< 0.4	1.6	–	158	31.6	–	> 4.5
COc1ncc(C2=CCOCC2)cc1S(=O)(=O)Nc1cncc(-c2ccc(CN3CCNCC3)cc2)c1	3.18	3160	794	2.21	3.3	7940	12.6	3.16	0.126	–
COc1ncc(N2CCOCC2)cc1S(=O)(=O)Nc1cncc(-c2ccc(CN3CCN(C(C)C)CC3)cc2F)c1 [listing 2 of 2 here]	–	–	–	–	–	–	3.16	–	–	–
COc1ncc(C2=CCOCC2)cc1S(=O)(=O)Nc1cncc(-c2ccc(CN3CCCCC3)s2)c1	–	1580	100	–	4.7	1580	31.6	2.51	–	–
COc1ncc(C2=CCOCC2)cc1S(=O)(=O)Nc1cncc(-c2ccc(CN3CCN(C)CC3)cc2)c1	0.96	251	501	1.64	2.3	3160	39.8	3.16	–	–
COc1ncc(C2=CCOCC2)cc1S(=O)(=O)Nc1ccccc1	–	3980	2510	–	–	7940	3980	200	–	–
COc1ncc(N2CCOCC2)cc1S(=O)(=O)Nc1ccnc(-c2ccc(CN3CCN(C(C)C)CC3)cc2)c1	< 0.46	2510	10000	< 0.4	1.4	5010	12.6	1.26	0.0398	–
COc1ncc(N2CCOCC2)cc1S(=O)(=O)Nc1ccnc(-c2ccc(CN3CCN(C(C)C)CC3)c(F)c2F)c1 [listing 2 of 2 here]	–	–	–	–	–	2000	–	–	–	–
COc1ncc(N2CCOCC2)cc1S(=O)(=O)Nc1cncc(-c2ccc(CN3CCCC3)cc2)c1 [listing 2 of 2 here]	–	–	–	–	–	10000	–	–	–	–
